What is called IC50 is the concentration needed to halve the response being measured.

The text below walks through data of article PMC8009520, “Exploration of TRPM8 Binding Sites by β-Carboline-Based Antagonists and Their In Vitro Characterization and In Vivo Analgesic Activities” (Journal of Medicinal Chemistry, 2020).

Series [1] deals with T1, rat isoform of TRPM8 channels (Rattus norvegicus, UniProt Q8R455).
T1 construct: expressed in transfected cells
The series is described as follows: Ca2+ fluorimetric assay, menthol-activated channel. Type of series: cell-based. As for the experimental part:
TRPM8 blocker activity of all synthesized compounds was tested by Ca^2+ fluorimetric assays using HEK-293 cells stably expressing the rat isoform of TRPM8 channels, using menthol and AMTB as prototypical agonist and antagonist, respectively.
For measurement of the potency of the compounds, fluorimetric experiments were performed using HEK-293 cells (CRL-1573TM, American Type Culture Collection, LGC Promochem, Molsheim, France) that stably express rat TRPM8. The cells were seeded in 96-well plates (Corning Incorporated, Corning, NY) at a cell density of 40 000 cells 2 days before treatment. On the day of treatment, the medium was replaced with 100 μL of the dye loading solution Fluo-4 NW supplemented with probenecid 2.5 mM.
The tested molecules dissolved in DMSO were added at the desired concentrations, and the plates were incubated in darkness at 37 °C in a humidified atmosphere of 5% CO2 for 60 min. The fluorescence was measured using instrument settings appropriate for excitation at 485 nm and emission at 535 nm (POLARstar Omega BMG LABtech). A baseline recording of four cycles was recorded prior to stimulation with the agonist (100 μM menthol for TRPM8). The TRPM8 antagonist, 10 μM AMTB, was added to the medium containing the corresponding agonist to induce channel blockade. The changes in fluorescence intensity were recorded during 15 cycles more. The higher concentration of DMSO used in the experiment was added to the control wells. The cells’ fluorescence was measured before and after the addition of various concentrations of test compounds. The fluorescence values obtained are normalized to that prompted by the corresponding agonist (for channel activating compounds) or upon agonist and antagonist coexposure (for channel blocker compounds).

The target in the next series is T2, hNav1.7 (Homo sapiens, UniProt Q15858).
T2 construct: expressed in transfected cells; host or cells: HEK-293, stably transfected
The series is described as follows: Selectivity fluorimetric assay, HEK-293 cells. The conditions noted are these: for IC50: read-out: IC50, antagonistic activity over Nav1.7. Format: cell-based.

The target of the next series is T3, hTRPV1 (Homo sapiens, UniProt Q8NER1).
T3 construct: expressed in transfected cells; host or cells: CHO-K1, stably transfected
The series is described as follows: Selectivity fluorimetric assay, CHO-K1 cells. Type of series: cell-based. The conditions noted are these: capsaicine as reference agonist.

For the next series, the target named is T4, hTRPA1 (Homo sapiens, UniProt O75762).
T4 construct: expressed in transfected cells; host or cells: HEK-293, stably transfected
As to the kind of experiment: Selectivity fluorimetric assay, HEK-293 cells. Type of series: cell-based. The conditions noted are these: AITC as reference agonist.

Series [2] can be described thus: Time-course cis to trans epimerization stability (HPLC). To be noted: during 60 min, regardless of the solvent used (PBS, methanol). Format: physicochemical. The protocol: In this case, a different chemical approach is required because of the minor reactivity of anilines. Intermediates THBC 32a and 32b were coupled with 3CF3 or 2F or 4-F-phenyl isocyanate in basic medium of TEA. […] Absolute configuration was determined as described above. The formation of the cis intermediates, which was not observed with the N-benzyl or N-alkyl analogs, can be explained by the increased stability of the kinetic control species due to the higher rigidity of this structure. […] In addition, the corresponding C-11a epimers 36a′–38a′ could be obtained directly by reaction of 32b with the corresponding isocyanates and TEA at 60 °C for 30 min in 39–45% yields.
Figure S1: Time-course trans (36a’-38a’) / cis (36b-38b) HPLC peak area ratio in physiological
buffer (PBS, panel A) and methanol (Panel B).

[3] abbreviates: HEK-293 cells stably expressing rat TRPM8, menthol as agonist, mean ± SD of at least three measurements, read-out: IC50.
The mark [4] stands for this setting: Table 2, Ca2+ fluorimetric assay, read-out: IC50 Ca2+.
[5] abbreviates: supplementary xlsx, read-out: rTRPM8 IC50 (calcium microfluorimetric assays).

Where two headings read alike, the source gives them in different places. Some results are limits rather than exact numbers.

T4 sequence (O75762 whole entry): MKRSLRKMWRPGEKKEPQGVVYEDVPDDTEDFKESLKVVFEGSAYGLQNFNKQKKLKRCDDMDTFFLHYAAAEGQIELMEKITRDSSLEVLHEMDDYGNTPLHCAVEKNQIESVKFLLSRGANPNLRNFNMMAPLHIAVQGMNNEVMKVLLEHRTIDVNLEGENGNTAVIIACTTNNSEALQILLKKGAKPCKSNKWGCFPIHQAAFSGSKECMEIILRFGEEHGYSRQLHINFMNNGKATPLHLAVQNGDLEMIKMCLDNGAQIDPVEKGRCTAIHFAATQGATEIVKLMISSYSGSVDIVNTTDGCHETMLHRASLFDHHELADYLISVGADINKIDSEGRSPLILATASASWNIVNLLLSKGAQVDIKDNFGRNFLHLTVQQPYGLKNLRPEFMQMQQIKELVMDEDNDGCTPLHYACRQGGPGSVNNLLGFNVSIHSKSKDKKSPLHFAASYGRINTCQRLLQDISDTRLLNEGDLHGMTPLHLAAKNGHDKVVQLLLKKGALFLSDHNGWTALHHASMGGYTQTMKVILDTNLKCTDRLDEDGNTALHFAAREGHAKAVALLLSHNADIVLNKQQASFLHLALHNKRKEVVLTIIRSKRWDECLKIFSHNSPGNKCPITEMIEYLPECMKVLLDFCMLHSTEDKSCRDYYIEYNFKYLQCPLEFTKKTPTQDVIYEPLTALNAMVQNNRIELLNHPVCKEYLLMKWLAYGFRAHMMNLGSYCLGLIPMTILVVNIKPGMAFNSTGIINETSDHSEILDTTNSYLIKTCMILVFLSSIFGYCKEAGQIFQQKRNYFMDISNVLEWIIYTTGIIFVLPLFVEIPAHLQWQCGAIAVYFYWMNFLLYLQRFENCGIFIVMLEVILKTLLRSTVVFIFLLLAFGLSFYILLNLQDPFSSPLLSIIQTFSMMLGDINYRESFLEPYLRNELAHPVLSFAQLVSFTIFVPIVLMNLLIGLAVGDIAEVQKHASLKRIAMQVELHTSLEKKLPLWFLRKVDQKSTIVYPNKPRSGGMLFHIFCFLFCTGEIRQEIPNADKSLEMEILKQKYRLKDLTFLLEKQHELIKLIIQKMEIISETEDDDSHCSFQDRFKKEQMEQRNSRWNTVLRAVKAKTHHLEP
T2 sequence (Q15858 whole entry): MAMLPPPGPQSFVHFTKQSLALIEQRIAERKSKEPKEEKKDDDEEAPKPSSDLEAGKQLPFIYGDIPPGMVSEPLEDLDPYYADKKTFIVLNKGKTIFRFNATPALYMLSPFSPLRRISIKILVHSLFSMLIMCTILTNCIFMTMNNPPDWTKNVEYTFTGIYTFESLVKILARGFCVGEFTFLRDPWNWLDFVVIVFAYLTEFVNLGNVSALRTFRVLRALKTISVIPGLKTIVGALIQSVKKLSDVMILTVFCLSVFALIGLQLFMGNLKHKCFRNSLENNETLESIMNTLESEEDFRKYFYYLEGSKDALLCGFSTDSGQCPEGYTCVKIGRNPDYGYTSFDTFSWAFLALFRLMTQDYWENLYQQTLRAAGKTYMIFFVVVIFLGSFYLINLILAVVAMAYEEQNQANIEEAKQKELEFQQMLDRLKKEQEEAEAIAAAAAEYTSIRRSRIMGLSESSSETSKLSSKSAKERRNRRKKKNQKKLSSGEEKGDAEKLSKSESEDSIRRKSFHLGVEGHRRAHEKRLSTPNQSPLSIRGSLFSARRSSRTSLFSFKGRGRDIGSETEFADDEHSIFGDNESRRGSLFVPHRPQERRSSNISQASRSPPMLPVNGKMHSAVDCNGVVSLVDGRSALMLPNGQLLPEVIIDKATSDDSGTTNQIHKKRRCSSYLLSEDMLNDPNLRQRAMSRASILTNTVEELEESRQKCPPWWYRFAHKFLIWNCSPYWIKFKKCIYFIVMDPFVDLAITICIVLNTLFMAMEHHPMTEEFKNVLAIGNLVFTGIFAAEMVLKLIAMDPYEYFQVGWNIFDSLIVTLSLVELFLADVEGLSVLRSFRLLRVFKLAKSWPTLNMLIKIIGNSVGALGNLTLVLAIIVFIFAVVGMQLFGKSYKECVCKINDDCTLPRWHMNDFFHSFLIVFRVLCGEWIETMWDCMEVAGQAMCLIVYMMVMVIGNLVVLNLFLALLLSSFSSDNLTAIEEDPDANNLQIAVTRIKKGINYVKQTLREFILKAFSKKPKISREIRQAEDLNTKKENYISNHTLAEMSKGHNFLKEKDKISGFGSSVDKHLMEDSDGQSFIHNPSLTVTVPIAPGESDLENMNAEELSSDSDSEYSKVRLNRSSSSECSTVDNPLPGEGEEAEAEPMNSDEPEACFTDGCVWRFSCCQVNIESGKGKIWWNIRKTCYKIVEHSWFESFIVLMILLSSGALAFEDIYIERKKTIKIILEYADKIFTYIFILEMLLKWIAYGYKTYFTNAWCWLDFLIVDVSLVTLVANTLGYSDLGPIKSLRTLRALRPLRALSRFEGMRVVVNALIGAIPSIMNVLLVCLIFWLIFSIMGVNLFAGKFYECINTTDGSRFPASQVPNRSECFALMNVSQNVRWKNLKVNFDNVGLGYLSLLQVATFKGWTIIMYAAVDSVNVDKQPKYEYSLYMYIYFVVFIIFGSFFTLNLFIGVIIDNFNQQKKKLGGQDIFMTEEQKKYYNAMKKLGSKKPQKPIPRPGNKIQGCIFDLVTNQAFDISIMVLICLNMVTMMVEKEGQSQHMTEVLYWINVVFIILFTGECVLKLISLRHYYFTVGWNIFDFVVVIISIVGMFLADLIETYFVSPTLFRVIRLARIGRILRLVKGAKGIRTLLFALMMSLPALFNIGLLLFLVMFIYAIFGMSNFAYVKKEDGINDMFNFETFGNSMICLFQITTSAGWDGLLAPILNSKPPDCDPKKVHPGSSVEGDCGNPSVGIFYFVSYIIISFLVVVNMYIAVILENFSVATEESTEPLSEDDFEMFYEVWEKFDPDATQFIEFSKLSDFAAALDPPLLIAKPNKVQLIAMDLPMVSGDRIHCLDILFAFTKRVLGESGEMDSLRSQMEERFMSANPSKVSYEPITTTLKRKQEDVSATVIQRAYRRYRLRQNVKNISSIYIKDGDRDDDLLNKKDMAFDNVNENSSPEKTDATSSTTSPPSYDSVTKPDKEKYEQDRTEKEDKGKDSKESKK
T3 sequence (Q8NER1 whole entry): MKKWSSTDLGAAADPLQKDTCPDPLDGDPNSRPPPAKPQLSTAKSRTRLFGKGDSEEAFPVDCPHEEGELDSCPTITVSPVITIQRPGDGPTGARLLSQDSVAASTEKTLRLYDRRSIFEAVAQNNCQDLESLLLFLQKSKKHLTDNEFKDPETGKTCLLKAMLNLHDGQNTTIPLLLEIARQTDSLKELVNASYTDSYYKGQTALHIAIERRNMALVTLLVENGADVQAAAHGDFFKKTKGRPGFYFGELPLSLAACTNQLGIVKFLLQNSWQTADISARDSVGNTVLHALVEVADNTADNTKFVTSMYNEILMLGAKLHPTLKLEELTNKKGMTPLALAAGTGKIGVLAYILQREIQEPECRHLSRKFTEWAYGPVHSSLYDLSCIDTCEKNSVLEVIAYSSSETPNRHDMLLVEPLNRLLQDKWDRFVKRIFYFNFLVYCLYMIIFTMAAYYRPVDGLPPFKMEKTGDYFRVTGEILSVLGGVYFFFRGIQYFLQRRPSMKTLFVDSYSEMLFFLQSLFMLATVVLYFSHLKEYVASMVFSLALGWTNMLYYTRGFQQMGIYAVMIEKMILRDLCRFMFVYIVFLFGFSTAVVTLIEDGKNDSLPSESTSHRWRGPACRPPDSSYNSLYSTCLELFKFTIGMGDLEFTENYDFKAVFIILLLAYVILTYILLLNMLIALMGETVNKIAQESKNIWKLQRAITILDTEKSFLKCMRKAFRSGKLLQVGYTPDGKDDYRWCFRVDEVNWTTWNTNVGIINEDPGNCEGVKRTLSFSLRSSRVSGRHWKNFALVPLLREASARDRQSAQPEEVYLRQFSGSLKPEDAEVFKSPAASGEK
T1 sequence (Q8R455 whole entry, canonical isoform): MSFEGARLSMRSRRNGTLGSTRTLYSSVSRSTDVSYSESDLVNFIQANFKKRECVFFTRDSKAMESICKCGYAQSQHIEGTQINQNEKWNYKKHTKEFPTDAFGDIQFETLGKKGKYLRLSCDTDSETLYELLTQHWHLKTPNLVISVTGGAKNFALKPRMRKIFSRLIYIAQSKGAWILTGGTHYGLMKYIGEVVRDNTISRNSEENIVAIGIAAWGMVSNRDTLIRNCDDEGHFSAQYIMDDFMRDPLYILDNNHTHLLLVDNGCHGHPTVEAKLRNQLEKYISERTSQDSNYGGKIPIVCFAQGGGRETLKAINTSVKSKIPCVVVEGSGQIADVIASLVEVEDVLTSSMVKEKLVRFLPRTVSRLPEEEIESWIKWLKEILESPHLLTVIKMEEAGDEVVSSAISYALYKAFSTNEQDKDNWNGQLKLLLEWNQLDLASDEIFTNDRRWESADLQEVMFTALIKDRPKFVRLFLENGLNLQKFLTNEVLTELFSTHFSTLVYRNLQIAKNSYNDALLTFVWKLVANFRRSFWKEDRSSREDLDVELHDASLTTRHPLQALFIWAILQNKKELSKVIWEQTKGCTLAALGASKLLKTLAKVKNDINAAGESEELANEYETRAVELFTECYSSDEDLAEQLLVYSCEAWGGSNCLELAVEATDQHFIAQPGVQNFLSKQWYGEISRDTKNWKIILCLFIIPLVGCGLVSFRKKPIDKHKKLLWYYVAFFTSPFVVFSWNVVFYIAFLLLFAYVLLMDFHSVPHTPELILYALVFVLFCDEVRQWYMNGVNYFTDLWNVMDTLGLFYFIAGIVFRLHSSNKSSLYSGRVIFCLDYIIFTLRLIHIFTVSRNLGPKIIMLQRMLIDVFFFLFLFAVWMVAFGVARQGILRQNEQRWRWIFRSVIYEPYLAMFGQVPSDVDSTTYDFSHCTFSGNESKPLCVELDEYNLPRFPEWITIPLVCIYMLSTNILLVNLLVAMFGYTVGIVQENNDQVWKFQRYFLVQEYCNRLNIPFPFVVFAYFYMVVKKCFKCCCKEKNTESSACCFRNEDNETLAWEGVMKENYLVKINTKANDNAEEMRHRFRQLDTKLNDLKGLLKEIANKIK

As to `COC(=O)[C@@H]1Cc2c([nH]c3ccccc23)[C@@H](c2ccccc2)N1Cc1ccccc1` [6a, (1R,3S)-Methyl 2-Benzyl-1-phenyl-2,3,4,9-tetrahydro-1H-pyrido[3,4-b]indole-3-carboxylate], the IC50 in series [1] (setting [3]) is 1.3 ± 0.7 µM; on hNav1.7 it was more than 10 µM. The “activity as agonist or antagonist on TRPV1” value (from here on “activity … on TRPV1”) at hTRPV1 was “no activity as agonists or antagonists”. For the same compound, the “activity as agonist or antagonist on TRPA1” value (from here on “activity … on TRPA1”) at hTRPA1 is listed as “no activity as agonists or antagonists”.

Regarding `Cc1ccc(CN2C(=O)[C@H]3Cc4c([nH]c5ccccc45)[C@H](c4ccc(Cl)cc4)N3C2=O)cc1` [30a′, (5S,11aR)-5-(4-Chlorophenyl)-2-(4-methylbenzyl)-5,6,11,11a-tetrahydro-1H-imidazo[1′,5′:1,6]pyrido[3,4-b]indole-1,3(2H)-dione], the IC50 in series [1] (setting [3]) worked out at 2.3 ± 0.8 µM.

As to `O=C1[C@H]2Cc3c([nH]c4ccccc34)[C@H](c3ccc(Cl)cc3)N2C(=O)N1Cc1ccc(F)cc1` [31a′, (5S,11aR)-5-(4-Chlorophenyl)-2-(4-fluorobenzyl)-5,6,11,11a-tetrahydro-1H-imidazo[1′,5′:1,6]pyrido[3,4-b]indole-1,3(2H)-dione], the IC50 in series [1] (setting [3]) is more than 30 µM.

In the case of `O=C1[C@@H]2Cc3c([nH]c4ccccc34)[C@@H](c3ccc(F)cc3)N2C(=O)N1Cc1ccccc1` [33a, (5R,11aS)-2-Benzyl-5-(4-fluorophenyl)-5,6,11,11a-tetrahydro-1H-imidazo[1′,5′:1,6]pyrido[3,4-b]indole-1,3(2H)-dione], in series [1] (setting [3]), the half-maximal inhibitory concentration (IC50) came out at 6.4 ± 1.2 µM. Besides, the rTRPM8 IC50 (calcium microfluorimetric assays) in series [1] (supplementary xlsx) was 17.5 ± 1.4 µM.

With `O=C1[C@H]2Cc3c([nH]c4ccccc34)[C@H](c3ccc(F)cc3)N2C(=O)N1Cc1ccccc1` [33a′, (5S,11aR)-2-Benzyl-5-(4-fluorophenyl)-5,6,11,11a-tetrahydro-1H-imidazo[1′,5′:1,6]pyrido[3,4-b]indole-1,3(2H)-dione], the IC50 in series [1] (setting [3]) was 17.5 ± 1.4 µM.

On to `NCCCN1C(=O)[C@@H]2Cc3c([nH]c4ccccc34)[C@@H](c3ccc(F)cc3)N2C1=O` [35a, (5R,11aS)-2-(3-Aminopropyl)-5-(4-fluorophenyl)-5,6,11,11a-tetrahydro-1H-imidazo[1′,5′:1,6]pyrido[3,4-b]indole-1,3(2H)-dione], for which, in series [1] (setting [3]), the IC50 amounted to 5.1 ± 1.2 µM. Further, in series [1] (supplementary xlsx), the rTRPM8 IC50 (calcium microfluorimetric assays) was 27.2 ± 1.4 µM.

As for `NCCCN1C(=O)[C@H]2Cc3c([nH]c4ccccc34)[C@H](c3ccc(F)cc3)N2C1=O` [35a′, (5S,11aR)-2-(3-Aminopropyl)-5-(4-fluorophenyl)-5,6,11,11a-tetrahydro-1H-imidazo[1′,5′:1,6]pyrido[3,4-b]indole-1,3(2H)-dione], the IC50 in series [1] (setting [3]) stood at 27.2 ± 1.4 µM.

On to `O=C1[C@@H]2Cc3c([nH]c4ccccc34)[C@@H](c3ccc(F)cc3)N2C(=O)N1c1cccc(C(F)(F)F)c1` [36a, (5R,11aS)-5-(4-Fluorophenyl)-2-(3-(trifluoromethyl)phenyl)-5,6,11,11a-tetrahydro-1H-imidazo[1′,5′:1,6]pyrido[3,4-b]indole-1,3(2H)-dione], for which the IC50 in series [1] (setting [3]) was 2.8 ± 1.5 µM. Further, in series [1] (supplementary xlsx), the rTRPM8 IC50 (calcium microfluorimetric assays) amounted to 7.8 ± 2.4 µM.

As for `O=C1[C@H]2Cc3c([nH]c4ccccc34)[C@H](c3ccc(F)cc3)N2C(=O)N1c1cccc(C(F)(F)F)c1` [36a′, (5S,11aR)-5-(4-Fluorophenyl)-2-(3-(trifluoromethyl)phenyl)-5,6,11,11a-tetrahydro-1H-imidazo[1′,5′:1,6]pyrido[3,4-b]indole-1,3(2H)-dione], in series [1] (setting [3]), the IC50 is 7.8 ± 2.4 µM.

`O=C1[C@@H]2Cc3c([nH]c4ccccc34)[C@@H](c3ccc(F)cc3)N2C(=O)N1c1ccccc1F` [37a, (5R,11aS)-2-(2-Fluorophenyl)-5-(4-fluorophenyl)-5,6,11,11a-tetrahydro-1H-imidazo[1′,5′:1,6]pyrido[3,4-b]indole-1,3(2H)-dione]: the IC50 in series [1] (setting [3]) came out at 4.4 ± 1.3 µM. The rTRPM8 IC50 (calcium microfluorimetric assays) in series [1] (supplementary xlsx) was determined as 5.1 ± 2.1 µM.

For `O=C1[C@H]2Cc3c([nH]c4ccccc34)[C@H](c3ccc(F)cc3)N2C(=O)N1c1ccccc1F` [37a′, (5S,11aR)-2-(2-Fluorophenyl)-5-(4-fluorophenyl)-5,6,11,11a-tetrahydro-1H-imidazo[1′,5′:1,6]pyrido[3,4-b]indole-1,3(2H)-dione], the concentration for half-maximal inhibition (IC50) in series [1] (setting [3]) came to 5.1 ± 2.1 µM.

`O=C1[C@@H]2Cc3c([nH]c4ccccc34)[C@H](c3ccc(F)cc3)N2C(=O)N1c1ccccc1F` [37b, (5S,11aS)-2-(2-Fluorophenyl)-5-(4-fluorophenyl)-5,6,11,11a-tetrahydro-1H-imidazo[1′,5′:1,6]pyrido[3,4-b]indole-1,3(2H)-dione]: in series [2], the “conversion of cis isomer to trans isomer” value was “almost fully converted to the trans isomers”.

For the compound `O=C1[C@@H]2Cc3c([nH]c4ccccc34)[C@@H](c3ccc(F)cc3)N2C(=O)N1c1ccc(F)cc1` [38a, (5R,11aS)-2,5-Bis(4-fluorophenyl)-5,6,11,11a-tetrahydro-1H-imidazo[1′,5′:1,6]pyrido[3,4-b]indole-1,3(2H)-dione], in series [1] (setting [3]), the IC50 was 6.7 ± 1.2 µM. For the same compound, the rTRPM8 IC50 (calcium microfluorimetric assays) in series [1] (supplementary xlsx) was found to be 7.2 ± 0.9 µM.

For `O=C1[C@H]2Cc3c([nH]c4ccccc34)[C@H](c3ccc(F)cc3)N2C(=O)N1c1ccc(F)cc1` [38a′, (5S,11aR)-2,5-Bis(4-fluorophenyl)-5,6,11,11a-tetrahydro-1H-imidazo[1′,5′:1,6]pyrido[3,4-b]indole-1,3(2H)-dione], the IC50 in series [1] (setting [3]) was determined as 7.2 ± 0.9 µM.

Take `O=C1[C@@H]2Cc3c([nH]c4ccccc34)[C@H](c3ccc(F)cc3)N2C(=O)N1c1ccc(F)cc1` [38b, (5S,11aS)-2,5-Bis(4-fluorophenyl)-5,6,11,11a-tetrahydro-1H-imidazo[1′,5′:1,6]pyrido[3,4-b]indole-1,3(2H)-dione]: the “conversion of cis isomer to trans isomer” value in series [2] was “almost fully converted to the trans isomers”.

Consider `Cc1cccc(COc2ccccc2C(=O)N(CCCN)Cc2cccs2)c1` [AMTB, reference compound], for which the IC50 in series [1] (setting [3]) came to 7.3 ± 1.5 µM.

In the case of `O=C(NCc1ccc(F)cc1)[C@@H]1Cc2c([nH]c3ccccc23)CN1` [compound 9, (S)-N-(4-Fluorobenzyl)-2,3,4,9-tetrahydro-1H-pyrido[3,4-b]indole-3-carboxamide], the concentration for half-maximal inhibition (IC50) was 0.9 ± 0.4 µM in series [1] (setting [3]), 0.9 ± 0.4 µM in series [1] (setting [4]), 0.6 ± 1.3 µM in series [1] (setting [5]) and more than 10 µM at hNav1.7. At hTRPV1, the “activity … on TRPV1” value is given as “no activity as agonists or antagonists”. For the same compound, on hTRPA1, the “activity … on TRPA1” value is recorded as “no activity as agonists or antagonists”.

Take `COC(=O)[C@@H]1Cc2c([nH]c3ccccc23)CN1C(=O)CCN` [compound 17, (S)-Methyl 2-(3-Aminopropanoyl)-2,3,4,9-tetrahydro-1H-pyrido[3,4-b]indole-3-carboxylate]: the IC50 in series [1] (setting [3]) was more than 100 µM.

As for `O=C1NCC(=O)N2Cc3[nH]c4ccccc4c3C[C@@H]12` [compound 21, (S)-2,3,6,7,12,12a-Hexahydropyrazino[1′,2′:1,6]pyrido[3,4-b]indole-1,4-dione], in series [1] (setting [3]), the IC50 turned out to be 11.4 ± 1.6 µM.

`O=C1N[C@@H](Cc2ccccc2)C(=O)N2Cc3[nH]c4ccccc4c3C[C@@H]12` [compound 22, (3S,12aS)-3-Benzyl-2,3,12,12a-tetrahydropyrazino[1′,2′:1,6]pyrido[3,4-b]indole-1,4(6H,7H)-dione]: the IC50 in series [1] (setting [3]) came to 1.6 ± 0.7 µM; in series [1] (setting [5]), 1.2 ± 1.3 µM.

Turning to `O=C1N[C@H](Cc2ccccc2)C(=O)N2Cc3[nH]c4ccccc4c3C[C@@H]12` [compound 23, (3R,12aS)-3-Benzyl-2,3,12,12a-tetrahydropyrazino[1′,2′:1,6]pyrido[3,4-b]indole-1,4(6H,7H)-dione], the IC50 in series [1] (setting [3]) came out at 0.4 ± 0.1 µM; in series [1] (setting [4]), 0.4 ± 0.1 µM; in series [1] (setting [5]), 0.3 µM. The “activity as agonist or antagonist on Nav1.7” value on hNav1.7 (veratridine as reference agonist) was “no activity as agonists or antagonists”. Further, the “activity … on TRPV1” value at hTRPV1 is reported as “no activity as agonists or antagonists”. Further, the “activity … on TRPA1” value at hTRPA1 is “no activity as agonists or antagonists”.

Turning to `O=C1[C@@H]2Cc3c([nH]c4ccccc34)CN2C(=O)N1Cc1ccc(F)cc1` [compound 28, (S)-2-(4-Fluorobenzyl)-5,6,11,11a-tetrahydro-1H-imidazo[1′,5′:1,6]pyrido[3,4-b]indole-1,3(2H)-dione], the IC50 in series [1] (setting [3]) is 17.8 ± 1.2 µM.
